Read-outs that look alike come from different tables or passages of the source.
Legend:
[1] = tested on: Ps aeruginosa; experiment: Corrected zone of inhibition of hydrated wound dressings on Poloxamer gel with MHB (biofilm bacteria); type: cell-based; conditions: bacteria grown in the biofilm state (poloxamer gel)
Text: The antimicrobial dressings used in this study were ActicoatTM (Smith and Nephew) and AQUACEL® Ag Hydrofiber® (ConvaTec). Acticoat is a nanocrystalline silver antimicrobial barrier dressing which consists of a rayon/polyester non-woven inner core laminated between two layers of silver-coated high density polyethylene mesh (HDPE). The layers are held together with ultrasound […] comprised of sodium carboxymethylcellulose Hydrofiber® and ionic silver. The silver cations in AQUACEL® Ag are associated with the individual highly absorbent anionic carboxymethylcellulose fibres of the Hydrofiber® dressing. AQUACEL® Hydrofiber® dressing (without silver) was also used as a control. […] The mean dressing size was then subtracted from the mean zone of inhibition to determine the corrected zone of inhibition (CZOI). A CZOI test allows for any inherent variability in the shape and size of zones created by the silver dressings which may change in dimension following hydration.

[2] = tested on: Seven antibiotic resistant microorganisms
[3] = tested on: Serratia marcescens
[4] = tested on: C. kruzei; conditions: poloxamer gel (biofilm state) vs without
[5] = tested on: Ps aeruginosa; conditions: poloxamer gel (biofilm state) vs without
[6] = tested on: Pseudomonas aeruginosa, Serratia marcescens, vancomycin resistant Enterococcus (VRE) and methicillin resistant Staphylococcus aureus (MRSA); conditions: EDTA 0.1-40% weight by volume; planktonic and biofilm state

## O=C(O)CN(CCN(CC(=O)O)CC(=O)O)CC(=O)O [EDTA, Ethylenediaminetetra-acetic acid]
[1]
  Effect of EDTA on the effects of ionic silver: enhances
[2]; 0.1% EDTA, any organism studied
  Zones of inhibition: no zones of inhibition were evident
[2]; 40% EDTA, all organisms tested
  Zones of inhibition: evident
[2]; poloxamer gel (biofilm state) vs without
  Zones of inhibition in the presence of poloxamer compared with planktonic: slightly smaller
[3]; 5% EDTA
  Zones of inhibition: no zones
[3]; 10% EDTA
  Zones of inhibition: no zones
[4]
  Zones of inhibition with poloxamer compared with without: larger zones
[5]
  Zones of inhibition with poloxamer compared with without: larger zones
[6]
  Killing of microorganisms: effective in killing

Source: patent publication US9149035B2, “Antimicrobial composition” (CONVATEC TECHNOLOGIES, INC., priority 2005, dated 2015)
